According to patent US10953010B2 (HAMRA INVEST AB, priority 2016, dated 2021):
Where two headings read alike, the source gives them in different places.

How the values were obtained:
[1] = test system: patients with acute ischemic stroke treated with intravenous thrombolysis; test: Hemorrhagic transformations and parenchymatous hemorrhages on post-treatment CT or MR; type: in vivo, human
Experimental: (§1) Occurrence and severity of hemorrhagic transformation, intracerebral hemorrhage and cerebral edema on post-treatment computer tomography (CT) or magnetic resonance imaging (MR) were among secondary outcomes. Others were neurological outcome at 2 hours, 24 hours and 7 days after initiation of intravenous thrombolysis, functional outcome at 3 months and infarct volume at 7 days. Infarct volume evaluation will be addressed in a following publication.

[2] = test system: patients with acute ischemic stroke treated with intravenous thrombolysis; test: Cerebral edema on post-treatment CT or MR; type: in vivo, human
Experimental: as §1

[3] = test system: patients with acute ischemic stroke treated with intravenous thrombolysis; test: Neurological outcome (NIHSS score); type: in vivo, human; settings: for mean lowering of the NIHSS score, estimate in brackets / mean lowering (improvement) of the NIHSS score: after adjustment for thrombectomy
Experimental: as §1
(§2) Clinical assessments, including determination of the NIHSS score were performed before intravenous thrombolysis and start of study treatment (baseline), 2 hours (day 0), day 1 and then daily until day 7. A final NIHSS score was included in the 3 months follow up examination. Assessment of any adverse event was done daily from day 0 to day 7, and finally at 3 months. CT scan was performed at baseline, 24 hours (accepted interval 22-36 hours) and, optionally, at 7 days, MRI at 24 h (accepted interval as for CT) and at 7 days. Definitions of hemorrhagic transformations, parenchymatous hemorrhages and edema are described in an earlier publication R1 and also listed in Table 1. At three months functional status was evaluated using the modified Rankin Scale (mRS) score. The three months follow up examinations were performed blindly at a different hospital than the one responsible for the acute treatment.
When looking at separate time points, linear regression with robust standard errors was used, while adjusting for thrombectomy. […] The choice of using AR1 correlation was made by comparing the Akaike Information Criterion to a model without AR1 correlation. […] The association between treatment groups and functional independence was analyzed using odds ratios. The statistical software Stata v.13 was used.

[4] = test system: patients with acute ischemic stroke treated with intravenous thrombolysis; settings: Imatinib treated patients
Experimental: as §1
as §2, with “Definitions of hemorrhagic transformations, parenchymatous hemorrhages and edema are described in an earlier publication R1 and also listed in Table 1.” left out, “The three months follow up examinations were performed blindly at a different hospital than the one responsible for the acute treatment.” left out
When looking at separate time points, linear regression with robust standard errors was used, while adjusting for thrombectomy. […] The association between treatment groups and functional independence was analyzed using odds ratios. […]

[5] = oral
clinical = settings: human, plasma, po
Bcr-Abl tyrosine kinase = settings: more potent than Imatinib; cited from earlier work

Structure (SMILES): Cc1ccc(NC(=O)c2ccc(CN3CCN(C)CC3)cc2)cc1Nc1nccc(-c2cccnc2)n1 [Imatinib]
- number of hemorrhagic transformations ([1]; high dose): 3
- parenchymatous hemorrhages, PH1 type ([1]; high dose): one
- remote parenchymatous hemorrhages of the milder grade (PHr1) ([1]; high dose group): 3
- hemorrhages reported ([1]; initiation of Imatinib within 5 hours after stroke onset, high dose group, of 5 treated): no hemorrhages
- hemorrhages reported ([1]; initiation of Imatinib within 5 hours after stroke onset, low dose group, of 8 treated): 4
- hemorrhages reported ([1]; initiation of Imatinib within 5 hours after stroke onset, medium dose, of to treated): 5
- number of hemorrhagic transformations ([1]; low dose group): 6
- remote parenchymatous hemorrhages of the milder grade (PHr1) ([1]; low dose group): one
- number of hemorrhagic transformations ([1]; medium dose): 7
- parenchymatous hemorrhages, PH2 ([1]; medium dose): one
- remote parenchymatous hemorrhages of the milder grade (PHr1) ([1]; medium dose group): one
- hemorrhages reported ([1]; reperfusion treatment completed within 4.5 hours, high dose group, of 7 treated): no hemorrhages
- hemorrhages reported ([1]; reperfusion treatment completed within 4.5 hours, low dose, of 9): 5
- hemorrhages reported ([1]; reperfusion treatment completed within 4.5 hours, medium dose, of 11 treated): 6
- number of cerebral edema (CED 1-3) ([2]; high dose): to
- patients with the mildest form of edema, CED 1 ([2]; high dose): to
- patients with CED 1 at follow up ([2]; initiation of Imatinib within 5 hours after stroke onset, high dose group, of 5 patients): 2
- patients with CED 1 or 2 ([2]; initiation of Imatinib within 5 hours after stroke onset, low dose, of 8 patients): 4
- patients with CED 1 or 2 ([2]; initiation of Imatinib within 5 hours after stroke onset, medium dose, of to patients): 5
- number of cerebral edema (CED 1-3) ([2]; low dose): 6
- patients with the mildest form of edema, CED 1 ([2]; low dose): 4
- moderately severe edema (CED-2) ([2]; low dose group): Two
- moderately severe edema (CED-2) ([2]; medium dose): 1
- number of cerebral edema (CED 1-3) ([2]; medium dose): 8
- patients with the mildest form of edema, CED 1 ([2]; medium dose): 7
- patients with CED 1 ([2]; reperfusion treatment completed within 4.5 hours, high dose group, of 7 patients): 4
- patients with CED 1 or 2 ([2]; reperfusion treatment completed within 4.5 hours, low dose, of nine): 4
- patients with CED 1 or 2 ([2]; reperfusion treatment completed within 4.5 hours, medium dose, of 11): 6
- improvement on the NIHSS per 100 mg Imatinib ([3]; after adjustment for the effect of thrombectomy): 0.6 points
- lowering of the adjusted mean NIHSS score compared to control, estimate in brackets ([3]; high dose, 3 months): −4.81
- lowering of the adjusted mean NIHSS score compared to control ([3]; high dose, 3 months, p<0.019): 5 points
- lowering of the adjusted mean NIHSS score compared to control, estimate in brackets ([3]; high dose, 7 days): −5.68
- lowering of the adjusted mean NIHSS score compared to control ([3]; high dose, 7 days, p<0.019): 6 points
- mean lowering of the NIHSS score, estimate in brackets ([3]; high dose): −4.94
- mean lowering (improvement) of the NIHSS score ([3]; high dose, p<0.012): 5 points
- lowering of the adjusted mean NIHSS score compared to control ([3]; high dose, day 1, p<0.018): 5 points
- mean lowering of the NIHSS score, estimate in brackets ([3]; low dose): −2.30
- mean lowering (improvement) of the NIHSS score ([3]; low dose, p<0.259): 2 points
- mean lowering of the NIHSS score, estimate in brackets ([3]; medium dose): −3.05
- mean lowering (improvement) of the NIHSS score ([3]; medium dose, p<0.106): 3 points
- neurological outcome ([3]; treatment with Imatinib vs control): significantly improved neurological outcome
- severe disability (5 points on mRS) or death (6 points) [4]: did not occur
- mean plasma concentration of Imatinib, Day 0-Day 6 ([5]; 400 mg daily): 0.53 µg/mL
- mean plasma concentration of Imatinib, Day 0-Day 6 ([5]; 600 mg daily): 1.094 µg/mL
- mean plasma concentration of Imatinib, Day 0-Day 6 ([5]; 800 mg daily): 2.054 µg/mL
- concentration at 3 h (clinical; 400 mg): 0.996 µg/mL
- concentration at 3 h (clinical; 600 mg): 1.57 µg/mL
- concentration at 3 h (clinical; 800 mg): 1.73 µg/mL

Structure (SMILES): Cc1cn(-c2cc(NC(=O)c3ccc(C)c(Nc4nccc(-c5cccnc5)n4)c3)cc(C(F)(F)F)c2)cn1 [Nilotinib]
- potency relative to Imatinib in inhibiting Bcr-Abl tyrosine kinase activity (Bcr-Abl tyrosine kinase): 10-30 fold
